# Values quoted from earlier work as cited in paper PMC10017685 (Nature Communications, 2023).
# System: human erythrocytes
# Design: method as in DBAASP
# Settings: cited from earlier work
row,Sequence,Class (dedicated toxicity dataset used for toxicity classifier evaluation)
1,GILSKLLKKLKKIIAK [DBAASP_8909],0
2,GILSSLLKKLKKIIAK [DBAASP_8905],0
3,GILSSLLKKLKKWIAK [DBAASP_8917],0
4,GILSSLLKKWKKIIAK [DBAASP_8916],0
5,GILSSLWKKLKKIIAK [DBAASP_8913],0
6,GILSSLWKKLKKWIAK [DBAASP_8918],0
7,GILSSWLKKLKKIIAK [DBAASP_8912],0
8,GIMSSLMKKLAAHIKK [DBAASP_8896],0
9,GIMSSLMKKLAKIIKK [DBAASP_8903],0
10,GIMSSLMKKLKKIIAK [DBAASP_8901],0
11,GIMSSLMKKLKKIIKK [DBAASP_8904],0
12,GKWKKILGKLIR [DBAASP_3277],0
13,GLLKKIKWLL [DBAASP_7430],0
14,GLLKKLLKKLLKKL [DBAASP_13973],1

# Same assay, conditions: toxicity class label 1 or 0, meaning of the labels not given; DBAASP HC50 data, human erythrocytes; ref DBAASP; cited from earlier work
row,Sequence,Class (dedicated toxicity dataset used for toxicity classifier evaluation)
1,GILSSLWKKPKKIIAK [DBAASP_8919],0
2,GIMISLMKKLAAHIAK [DBAASP_8898],0
3,GIMSSLMKKLAAHIAK [DBAASP_8893],0
4,GIMSSLMKKLAAIIAK [DBAASP_8899],0
5,GIMSSLMKKLAKHIAK [DBAASP_8895],0
6,GIMSSLMKKLAKIIAK [DBAASP_8900],0
7,GIMSSLMKKLKAHIAK [DBAASP_8894],0
8,GIMSSLMKKLKKHIAK [DBAASP_8897],0
9,GIWDTIKSMGKVFAGAILQNL [DBAASP_700],1
10,GIWDTIKSMGKVFAGKIKQNL [DBAASP_702],0
11,GIWDTIKSMGKVFAGLILQNL [DBAASP_701],1
12,GIWKTIKSMGKVFAGAIKQNL [DBAASP_705],0
13,GIWKTIKSMGKVFAGAILQNL [DBAASP_704],0
14,GIWKTIKSMGKVFAGKIKQNL [DBAASP_703],0
15,GIWKTIKSMGKVFAGKILQNL [DBAASP_699],0
16,GIWSSLLKKLKKIIAK [DBAASP_8911],0
17,GKLGPLLKIAAKVGSKLL [DBAASP_11238],0
18,GKLGPLLKIAAKVGSNLL [DBAASP_11237],0
19,GKLSSLWKKLKKIIAK [DBAASP_8915],0
20,GLASTIGSLLGKFAKGGAQAFLQPK [DBAASP_2288],0
21,GLFDIIKKIAESF [DBAASP_779],0
22,GLFDIWAWWRWRR [DBAASP_10051],0

row,Sequence,Class (dedicated toxicity dataset used for toxicity classifier evaluation)
1,GLFDIWKKLRWRR [DBAASP_10054],0
2,GLFDIWKKWRWRR [DBAASP_10053],0
3,GLFDIWKWWRWRR [DBAASP_10052],0
4,GLFDKWAWWRWRR [DBAASP_10050],0
5,GLFDVIKKLLKKIGGL [DBAASP_8593],1
6,GLFDVIKKLLKKIKGL [DBAASP_8594],1
7,GLFDVIKKVASVIGGL [DBAASP_1320],0
8,GLFDVIKKVLKKIGGL [DBAASP_8592],1
9,GLFGKILGVGKKVLCGLSGMC [DBAASP_2198],0
10,GLGSVLGKALKIGANLL [DBAASP_3821],0
11,GLKALKKVFKGIHKAIKLINKHVK [DBAASP_6932],0
12,GLKALKKVFKGIHKAIKLINKHVQ [DBAASP_6931],0
13,GLKALKKVFKGIHKAIKLINNHVQ [DBAASP_6929],0
14,GLKALKKVFQGIHEAIKLINNHVQ [DBAASP_6923],0
15,GLKALKKVFQGIHKAIKLINNHVQ [DBAASP_6928],0
16,GLKEVAHSAKKFAKGFISGLTGS [DBAASP_5713],0
17,GLKGLLGKALKGIGKHIGKAQGC [DBAASP_6808],0
18,GLKKIFKAGLGSLKKGIAAHVAS [DBAASP_4412],0
19,GLKKIFKAGLGSLVKGIAAHVAS [DBAASP_4408],0
20,GLKKIFKAGLGSLVKGIAAHVAS [DBAASP_4416],1
21,GLKKIFKAGLGSLVKGIKAHVAS [DBAASP_4414],0
22,GLKKIFKKGLGSLVKGIAAHVAS [DBAASP_4410],0

row,Sequence,Class (dedicated toxicity dataset used for toxicity classifier evaluation)
1,GLKLLLSLGLKLL [DBAASP_13848],0
2,GLLDFFKGAGKELLTHLASQI [DBAASP_16390],0
3,GLLDLLKGAGKGLLTHLASQI [DBAASP_16389],0
4,GLLDLLKLLLKAAG [DBAASP_12756],0
5,GLLDTLKGAAKNVVGSLASKVMEKL [DBAASP_4394],0
6,GLLGKLLKIAAKVGKKLL [DBAASP_4927],1
7,GLLGKLLKIAAKVGSNLL [DBAASP_4922],1
8,GLLGLLGSVVSHVVPAIVGHF [DBAASP_2298],1
9,GLLGPLLKIAAKVGKKLL [DBAASP_4925],0
10,GLLGPLLKIAAKVGKNLL [DBAASP_4924],0
11,GLLGPLLKIAAKVGSKLL [DBAASP_4926],0
12,GLLGPLLKIAAKVGSNLL [DBAASP_3157],0
13,GLLGPLLKIAKKVGSNLL [DBAASP_4923],0
14,GLLKAIKTLL [DBAASP_3121],0
15,GLLKFIKTLL [DBAASP_3138],0
16,GLLKIIKTLL [DBAASP_3137],1
17,GLLKKIKKLL [DBAASP_7429],0
18,GLLKKIKTLL [DBAASP_3141],0
19,GLLKKLLKIAAKVGKKLL [DBAASP_4928],1
20,GLLKLIKTLL [DBAASP_3136],1
21,GLLKPLLKIAAKVGSNLL [DBAASP_2279],0
22,GLLKRIATLL [DBAASP_3123],0

row,Sequence,Class (dedicated toxicity dataset used for toxicity classifier evaluation)
1,GLLKRIKALL [DBAASP_3124],0
2,GLLKRIKFLL [DBAASP_3145],0
3,GLLKRIKILL [DBAASP_3144],0
4,GLLKRIKKLL [DBAASP_3148],0
5,GLLKRIKKLLKKIKKLL [DBAASP_8595],1
6,GLLKRIKLLL [DBAASP_3143],0
7,GLLKRIKNLL [DBAASP_3146],0
8,GLLKRIKSLL [DBAASP_8600],0
9,GLLKRIKT [DBAASP_13874],0
10,GLLKRIKTL [DBAASP_13873],1
11,GLLKRIKTLL [DBAASP_3116],0
12,GLLKRIKTLL [DBAASP_7447],1
13,GLLKRIKVLL [DBAASP_3142],0
14,GLLKRIKWLL [DBAASP_3147],0
15,GLLKVIKTLL [DBAASP_3135],0
16,GLLKVIKVLL [DBAASP_3150],1
17,GLLKWIKTLL [DBAASP_3140],1
18,GLLRASSKWGRKYYVDLAGCAKA [DBAASP_12529],0
19,GLLRASSVWGRKYYVDLAGCAKA [DBAASP_1639],0
20,GLLSNVAGLLKQFAKGGVNAVLNPK [DBAASP_5717],0
21,GLLSRIKTLL [DBAASP_8598],0
22,GLLTRIKTLL [DBAASP_8596],0
